Target: T1, streptavidin (SAv) (Streptomyces avidinii, UniProt P22629)
T1 construct: commercial lyophilized streptavidin (Sigma Aldrich), homotetramer, immobilised as monolayer on biotinylated OEG
Test: AFM single molecule force spectroscopy, Bell-Evans fit
Assay type: binding
Settings: labelled compound (biotin tethered to AFM tip by PEG linker and thiol-gold bond); koff extrapolated to zero force; 10 mM HEPES pH 7.4, 150 mM NaCl, ambient temperature
Description: AFM single molecule force spectroscopy, Bell-Evans fit on streptavidin (SAv)

T1 sequence (P22629 25-183): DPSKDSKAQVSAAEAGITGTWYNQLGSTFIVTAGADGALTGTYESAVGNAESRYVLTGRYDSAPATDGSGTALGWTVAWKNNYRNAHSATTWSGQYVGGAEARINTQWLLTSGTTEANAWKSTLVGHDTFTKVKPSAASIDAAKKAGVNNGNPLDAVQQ

Question: Which “koff” value does the source give for biotin here?
Answer: 1.40 ± 0.59 s⁻¹

Reference: paper PMC5040960, “A single molecule assay to probe monovalent and multivalent bonds between hyaluronan and its key leukocyte receptor CD44 under force” (Scientific Reports, 2016)
